Measured values taken from ChEMBL document CHEMBL3045901, “Aryldiones incorporating a [1,4,5]oxadiazepane ring. Part 2: chemistry and biology of the cereal herbicide pinoxaden” (Pest Manag Sci, 2011).
Values after ≈ are worked out from the molar mass of the structure shown.

What was measured:
Avena fatua = assay: Herbicidal activity against Avena fatua assessed as weed control at 30 g/ha under greenhouse measured after 21 days by post-emergence test; format: functional
Triticum aestivum = assay: Herbicidal activity against Triticum aestivum (wheat) assessed as weed control at 30 g/ha under greenhouse measured after 21 days by post-emergence test; format: functional
Hordeum vulgare = assay: Herbicidal activity against Hordeum vulgare (barley) assessed as weed control at 30 g/ha under greenhouse measured after 21 days by post-emergence test; format: functional
Lolium perenne = assay: Herbicidal activity against Lolium perenne (perennial ryegrass) assessed as weed control at 30 g/ha under greenhouse measured after 21 days by post-emergence test; format: functional
Alopecurus myosuroides = assay: Herbicidal activity against Alopecurus myosuroides assessed as weed control at 30 g/ha under greenhouse measured after 21 days by post-emergence test; format: functional
Setaria faberi = assay: Herbicidal activity against Setaria faberi (Giant Foxtail) assessed as weed control at 30 g/ha under greenhouse measured after 21 days by post-emergence test; format: functional
[1] = Solubility in water at pH7 at 20 degC; format: physicochemical; conditions: pH 7
[2] = Lipophilicity, log P of the compound at pH7 at 20 degC; format: physicochemical; conditions: buffer, pH 7
[3] = Aqueous hydrolysis of the compound at pH 7 at 20 degC; format: physicochemical; conditions: aqueous solution, read-out: DT50 (converted)
[4] = Aqueous hydrolysis of the compound at pH 9 at 20 degC; format: physicochemical; conditions: aqueous solution, read-out: DT50 (converted)
[5] = Solubility in water at pH5 at 20 degC; format: physicochemical; conditions: pH 5
[6] = Lipophilicity, log P of the compound at pH5 at 20 degC; format: physicochemical; conditions: buffer, pH 5
[7] = Aqueous hydrolysis of the compound at pH 4 at 20 degC; format: physicochemical; conditions: aqueous solution, read-out: DT50 (converted)
[8] = Dissociation constant, pKa of the compound; format: physicochemical
[9] = Aqueous hydrolysis of the compound at pH 5 at 20 degC; format: physicochemical; conditions: aqueous solution, read-out: DT50 (converted)

SMILES	Activity (Avena fatua) [%]	Activity (Triticum aestivum) [%]	Activity (Hordeum vulgare) [%]	Activity (Lolium perenne) [%]	Activity (Alopecurus myosuroides) [%]	Activity (Setaria faberi) [%]	solubility [1] [µg/mL]	logD [2]	half-life [3] [h]	half-life [4] [h]	solubility [5] [µg/mL]	logD [6]	half-life [7] [h]	pKa [8]	half-life [9] [h]
CCc1cc(C)cc(CC)c1C1C(=O)N2CCC(O)CCN2C1=O	100	80	40	90	100	90	–	–	–	–	–	–	–	–	–
CCc1cc(C)cc(CC)c1C1C(=O)N2CCC(C)(O)CCN2C1=O	80	80	90	100	100	90	–	–	–	–	–	–	–	–	–
CCc1cc(C)cc(CC)c1C1C(=O)N2C[C@H]3COC[C@H]3CN2C1=O (some centres undefined)	100	40	0	90	100	100	–	–	–	–	–	–	–	–	–
CCc1cc(C)cc(CC)c1C1C(=O)N2CC(C)OC(C)CN2C1=O (centres undefined)	90	0	0	80	50	90	–	–	–	–	–	–	–	–	–
CCc1cc(-c2ccccc2)cc(CC)c1C1C(=O)N2CCOCCN2C1=O	90	80	80	80	90	80	–	–	–	–	–	–	–	–	–
CCc1cc(C)cc(CC)c1C1C(=O)N2C[C@H]3CC[C@@H](CN2C1=O)O3 (some centres undefined)	80	0	0	80	40	80	–	–	–	–	–	–	–	–	–
C#Cc1cc(C)cc(OC)c1C1C(=O)N2CCOCCN2C1=O	0	0	0	100	20	90	–	–	–	–	–	–	–	–	–
CCc1cc(C)cc(CC)c1C1C(=O)N2COC(C)CN2C1=O (centres undefined)	100	10	20	60	40	90	–	–	–	–	–	–	–	–	–
CCc1cccc(CC)c1C1C(=O)N2CCOCCN2C1=O	0	0	0	0	0	90	–	–	–	–	–	–	–	–	–
CCc1cc(C)cc(CC)c1C1C(=O)N2COC(CC)CN2C1=O (centres undefined)	100	60	20	100	90	90	–	–	–	–	–	–	–	–	–
CCc1cc(C)cc(CC)c1C1C(=O)N2CCOC(C)CN2C1=O (centres undefined)	40	0	0	90	60	90	–	–	–	–	–	–	–	–	–
CCc1cc(C)cc(CC)c1C1C(=O)N2CCOCCN2C1=O [PINOXADEN DIONE]	100	10	0	90	100	90	> 300000	-1.1	< 24	< 24	5200 (≈ 16.4 mM)	0.62	< 24	3.82	< 24
CCc1cc(-c2ccccc2)cc(OC)c1C1C(=O)N2CCOCCN2C1=O	100	90	90	90	80	90	–	–	–	–	–	–	–	–	–
C#Cc1cc(C)cc(C)c1C1C(=O)N2CCOCCN2C1=O	100	50	40	90	80	100	–	–	–	–	–	–	–	–	–
CCc1cc(C)cc(CC)c1C1C(=O)N2CCCOCN2C1=O (centres undefined)	40	0	0	40	0	10	–	–	–	–	–	–	–	–	–
CCc1cc(C)cc(CC)c1C1C(=O)N2C(C)COCC(C)N2C1=O (centres undefined)	50	0	0	40	60	80	–	–	–	–	–	–	–	–	–
C#Cc1cc(C)cc(C#C)c1C1C(=O)N2CCOCCN2C1=O	90	20	20	80	80	90	–	–	–	–	–	–	–	–	–
C#Cc1cc(C)cc(CC)c1C1C(=O)N2CCOCCN2C1=O	100	50	50	100	100	100	–	–	–	–	–	–	–	–	–

SMILES	Activity (Avena fatua) [%]	Activity (Triticum aestivum) [%]	Activity (Hordeum vulgare) [%]	Activity (Lolium perenne) [%]	Activity (Alopecurus myosuroides) [%]	Activity (Setaria faberi) [%]	solubility [1] [µg/mL]	logD [2]	half-life [3] [h]	half-life [4] [h]	solubility [5] [µg/mL]	logD [6]	half-life [7] [h]	pKa [8]	half-life [9] [h]
CC#Cc1cc(C)cc(C)c1C1C(=O)N2CCOCCN2C1=O	40	10	10	60	0	40	–	–	–	–	–	–	–	–	–
Cc1cc(Br)c(C2C(=O)N3CCOCCN3C2=O)c(Br)c1	40	0	0	10	0	10	–	–	–	–	–	–	–	–	–
CCc1cc(C)cc(C)c1C1C(=O)N2CCOCCN2C1=O	80	20	40	60	60	60	–	–	–	–	–	–	–	–	–
CCc1cc(CC)c(C2C(=O)N3CCOCCN3C2=O)c(CC)c1	60	0	0	60	40	40	–	–	–	–	–	–	–	–	–
COc1cc(C)cc(Br)c1C1C(=O)N2CCOCCN2C1=O	60	10	20	100	20	60	–	–	–	–	–	–	–	–	–
CCc1cc(I)cc(CC)c1C1C(=O)N2CCOCCN2C1=O	0	0	0	0	0	0	–	–	–	–	–	–	–	–	–
CCc1cc(C)cc(OC)c1C1C(=O)N2CCOCCN2C1=O	90	50	50	80	90	100	–	–	–	–	–	–	–	–	–
C#Cc1cc(C)c(C2C(=O)N3CCOCCN3C2=O)c(CC)c1	20	0	10	10	20	20	–	–	–	–	–	–	–	–	–
Cc1cc(C)c(C2C(=O)N3CCOCCN3C2=O)c(C(C)C)c1	50	0	0	50	0	20	–	–	–	–	–	–	–	–	–
Cc1cc(C)c(C2C(=O)N3CCOCCN3C2=O)c(C)c1	60	0	0	80	10	50	–	–	–	–	–	–	–	–	–
CCc1cc(C)c(C2C(=O)N3CCOCCN3C2=O)c(CC)c1	50	0	0	60	0	60	–	–	–	–	–	–	–	–	–
CCc1cc(C)cc(CC)c1C1C(=O)N2CCOCN2C1=O (centres undefined)	40	0	0	10	0	10	–	–	–	–	–	–	–	–	–
Cc1cc(C)c(C2C(=O)N3CCOCCN3C2=O)c(C2CC2)c1	90	0	0	50	0	60	–	–	–	–	–	–	–	–	–
CCCc1cc(C)cc(C)c1C1C(=O)N2CCOCCN2C1=O	80	0	0	60	20	40	–	–	–	–	–	–	–	–	–
CCCc1cc(C)cc(CCC)c1C1C(=O)N2CCOCCN2C1=O	80	0	0	0	50	90	–	–	–	–	–	–	–	–	–
Cc1cc(C)c(C2C(=O)N3CCOCCN3C2=O)c(Br)c1	40	0	0	90	0	40	–	–	–	–	–	–	–	–	–
CCc1cc(C)cc(CC)c1C1C(=O)N2CCOC(CC)CN2C1=O (centres undefined)	40	0	0	80	20	20	–	–	–	–	–	–	–	–	–
